In patent US20200385371A1 (Propellon Therapeutics Inc., priority 2017, published 2020) one finds Kd, IC50 and EC50 data, which are given here for 18 molecules.

Molecules are shown by their SMILES. Structures can show the parent of a compound that is named as a salt.

Test [1] has as its target T1, WDR5 (Homo sapiens, UniProt P61964). Put plainly: Surface Plasmon Resonance (SPR) assay. Format: binding. Also noted: Full length WDR5 with an N-terminal His tag and C-terminal AviTag; His tag (N); made in house; host or cells: E. coli. The note with it: read-out: SPR Kd. A digest of the protocol:
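Full-length biotinylated WDR5 (N-His, C-AviTag, E. coli) captured (~3000 RU) on streptavidin SA chip; Biacore T200. HBS-EP pH 7.4 plus 5% DMSO running buffer, 40 μl/min.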

In test [2] the target is T1, WDR5. Put plainly: Fluorescence Polarization (FP) binding assay. A digest of the protocol:
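Buffer was pH 6.5 sodium phosphate (80 mM) with 20 mM KCl and 0.008% Triton X-100; 9-Ala-FAM probe at 20 nM used 0.05 μM WDR5 and 480/540 nm polarization, H3 (1-15) probe at 30 nM used 0.3 μM WDR5 and 485/528 nm. Quadruplicate data were hyperbola-fitted to give Kdisp.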
A general note: Fluorescence polarisation rises when a labelled molecule tumbles more slowly, as on binding a larger partner.

Test [3] relates to MV4-11 cells. Description: Cell proliferation assay (ATPlite). Format: cell-based. The note with it: Homo sapiens, 120 h; MV4-11 cells, five days; read-out: GI MV411 EC50. A digest of the protocol:
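ATPlite luminescence after five days' culture (37° C, 5% CO2) gives viability. Compounds dosed in 10 concentrations up to 10 μM against DMSO; 1,000 cells/well seeded in Alpha-MEM/10% FBS.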

For orientation: Kd means the concentration at which binding is half-saturated. Broadly, the IC50 is the concentration needed to halve the response being measured. By EC50 is commonly meant the midpoint of the concentration-response curve. Regarding `C[C@@H]1CN(c2ncc(-c3c(F)cc(N4C[C@@H](C)N(C)[C@@H](C)C4)c(NC(=O)c4c[nH]c(=O)cc4C(F)F)c3F)cn2)C[C@@H](C)O1` [Example 116, 4-(Difluoromethyl)-N-(3-(2-((2R,6R)-2,6-dimethylmorpholino)pyrimidin-5-yl)-2,4-difluoro-6-((3S,5R)-3,4,5-trimethylpiperazin-1-yl)phenyl)-6-oxo-1,6-dihydropyridine-3-carboxamide], the Kd in test [1] amounted to 1.12 nM. The IC50 in test [2] stood at 15.2 nM. The EC50 in test [3] was found to be 36.5 nM.

For `C[C@@H]1CN(c2cc(F)c(-c3cnc(N4CCOCC4)nc3)c(F)c2NC(=O)c2ccc(F)cc2C(F)F)C[C@H](C)N1C` [Example 31, N-(2,4-difluoro-3-(2-morpholinopyrimidin-5-yl)-6-((3S,5R)-3,4,5-trimethylpiperazin-1-yl)phenyl)-2-(difluoromethyl)-4-fluorobenzamideformic Acid], in test [1], the dissociation constant Kd was determined as 1.04 nM. Further, the concentration for half-maximal inhibition (IC50) in test [2] turned out to be 19.6 nM. Also, the half-maximal effective concentration (EC50) in test [3] came out at 96.6 nM.

For `C[C@H]1CN(c2cc(F)c(C3=CCCN(C(=O)OC4(C)CCC4)C3)c(F)c2NC(=O)c2c[nH]c(=O)cc2C(F)F)CCN1C` [Example 94, 1-Methylcyclobutyl (S)-5-(3-(4-(difluoromethyl)-6-oxo-1,6-dihydropyridine-3-carboxamido)-4-(3,4-dimethylpiperazin-1-yl)-2,6-difluorophenyl)-3,6-dihydropyridine-1(2H)-carboxylate], the Kd in test [1] came to 2.17 nM. Further, the concentration for half-maximal inhibition (IC50) in test [2] stood at 17.4 nM. Also, in test [3], the EC50 stood at 93.9 nM.

As to `C[C@@H]1CN(c2ccc(-c3c(F)cc(N4C[C@@H](C)N(C)[C@@H](C)C4)c(NC(=O)c4c[nH]c(=O)cc4C(F)(F)F)c3F)cn2)C[C@H](C)O1` [Example 62, N-(3-(6-((2S,6R)-2,6-dimethylmorpholino)pyridin-3-yl)-2,4-difluoro-6-((3S,5R)-3,4,5-trimethylpiperazin-1-yl)phenyl)-6-oxo-4-(trifluoromethyl)-1,6-dihydropyridine-3-carboxamide], in test [1], the Kd stood at 2.14 nM. Besides, the half-maximal inhibitory concentration (IC50) in test [2] was 14.4 nM. Further, the concentration giving a half-maximal response (EC50) in test [3] amounted to 24.9 nM.

Take `CC(C)OC(=O)N1CC=C(c2c(F)cc(N3CCN(C)[C@@H](C)C3)c(NC(=O)c3c[nH]c(=O)cc3C(F)(F)F)c2F)CC1` [Example 39, Isopropyl (S)-4-(4-(3,4-dimethylpiperazin-1-yl)-2,6-difluoro-3-(6-oxo-4-(trifluoromethyl)-1,6-dihydropyridine-3-carboxamido)phenyl)-3,6-dihydropyridine-1(2H)-carboxylate]: the Kd in test [1] was 1.58 nM. Moreover, the IC50 in test [2] was found to be 15.2 nM. Moreover, the half-maximal effective concentration (EC50) in test [3] amounted to 35.4 nM.

As for `C[C@@H]1CN(c2ccc(-c3c(F)cc(N4CCN(C)[C@@H](C)C4)c(NC(=O)c4ccc(F)cc4C(F)F)c3F)cn2)CCO1` [Example 177, 2-(Difluoromethyl)-N-(6-((S)-3,4-dimethylpiperazin-1-yl)-2,4-difluoro-3-(6-((R)-2-methylmorpholino)pyridin-3-yl)phenyl)-4-fluorobenzamide], the Kd in test [1] turned out to be 1.72 nM. For the same molecule, in test [2], the IC50 came to 23 nM. Further, in test [3], the half-maximal effective concentration (EC50) came to 101 nM.

Take `C[C@@H]1CN(c2cc(F)c(-c3ccnc(N4CCOCC4)c3)c(F)c2NC(=O)c2c[nH]c(=O)cc2C(F)(F)F)C[C@H](C)N1C` [Example 69, N-(2,4-difluoro-3-(2-morpholinopyridin-4-yl)-6-((3S,5R)-3,4,5-trimethylpiperazin-1-yl)phenyl)-6-oxo-4-(trifluoromethyl)-1,6-dihydropyridine-3-carboxamide]: the Kd in test [1] was 3.01 nM. The concentration for half-maximal inhibition (IC50) in test [2] turned out to be 23.2 nM. Further, the EC50 in test [3] worked out at 417 nM.

Regarding `COc1cnc(N2CC=C(c3c(F)cc(N4CCN(C)[C@@H](C)C4)c(NC(=O)c4c[nH]c(=O)cc4C(F)F)c3F)C2)nc1` [Example 50, (S)-4-(difluoromethyl)-N-(6-(3,4-dimethylpiperazin-1-yl)-2,4-difluoro-3-(1-(5-methoxypyrimidin-2-yl)-2,5-dihydro-1H-pyrrol-3-yl)phenyl)-6-oxo-1,6-dihydropyridine-3-carboxamide], the Kd in test [1] amounted to 0.8 nM. The IC50 in test [2] is 11.8 nM. The EC50 in test [3] amounted to 83.2 nM.

`C[C@H]1CN(c2ncc(-c3c(F)cc(N4CCN(C)[C@@H](C)C4)c(NC(=O)c4ccc(F)cc4C(F)(F)F)c3F)cn2)C[C@H](C)O1` [Example 166, N-(3-(2-((2S,6S)-2,6-dimethylmorpholino)pyrimidin-5-yl)-6-((S)-3,4-dimethylpiperazin-1-yl)-2,4-difluorophenyl)-4-fluoro-2-(trifluoromethyl)benzamide Formic Acid Salt]: the Kd in test [1] was found to be 0.73 nM. The IC50 in test [2] was found to be 11.7 nM. Besides, the concentration giving a half-maximal response (EC50) in test [3] turned out to be 63.6 nM.

Consider `C[C@@H]1CN(c2cc(F)c(C3=CCN(C(=O)OC4CC(F)(F)C4)CC3)c(F)c2NC(=O)c2c[nH]c(=O)cc2C(F)(F)F)C[C@H](C)N1C` [Example 135, 3,3-Difluorocyclobutyl 4-(2,6-difluoro-3-(6-oxo-4-(trifluoromethyl)-1,6-dihydropyridine-3-carboxamido)-4-((3S,5R)-3,4,5-trimethylpiperazin-1-yl)phenyl)-5,6-dihydropyridine-1(2H)-carboxylate], for which the Kd in test [1] is 2.31 nM. Moreover, the IC50 in test [2] stood at 12.5 nM. In test [3], the EC50 was found to be 67.4 nM.

Turning to `C[C@H]1CN(c2cc(F)c(C3=CCCN(c4ncc(C#N)s4)C3)c(F)c2NC(=O)c2c[nH]c(=O)cc2C(F)F)CCN1C` [Example 99, (S)—N-(3-(1-(5-cyanothiazol-2-yl)-1,2,5,6-tetrahydropyridin-3-yl)-6-(3,4-dimethylpiperazin-1-yl)-2,4-difluorophenyl)-4-(difluoromethyl)-6-oxo-1,6-dihydropyridine-3-carboxamide], in test [1], the Kd stood at 1.62 nM. Further, the 50% inhibitory concentration (IC50) in test [2] worked out at 14.7 nM. For the same molecule, in test [3], the EC50 came out at 169 nM.

On to `C[C@H]1CN(c2cc(F)c(C3=CCCN(c4ncccn4)C3)c(F)c2NC(=O)c2c[nH]c(=O)cc2C(F)F)CCN1C` [Example 54, (S)-4-(difluoromethyl)-N-(6-(3,4-dimethylpiperazin-1-yl)-2,4-difluoro-3-(1-(pyrimidin-2-yl)-1,2,5,6-tetrahydropyridin-3-yl)phenyl)-6-oxo-1,6-dihydropyridine-3-carboxamide], for which, in test [1], the Kd was 3.83 nM. Besides, in test [2], the IC50 turned out to be 28.8 nM. The concentration for a half-maximal effect (EC50) in test [3] stood at 693 nM.

For `C[C@H]1CN(c2cc(F)c(-c3cnc(N4C[C@H]5CC[C@@H](C4)O5)nc3)c(F)c2NC(=O)c2c[nH]c(=O)cc2C(F)(F)F)CCN1C` [Example 89, N-(3-(2-((1R,5S)-8-oxa-3-azabicyclo[3.2.1]octan-3-yl)pyrimidin-5-yl)-6-((S)-3,4-dimethylpiperazin-1-yl)-2,4-difluorophenyl)-6-oxo-4-(trifluoromethyl)-1,6-dihydropyridine-3-carboxamide], the dissociation constant (Kd) in test [1] was 0.83 nM. In test [2], the concentration for half-maximal inhibition (IC50) is 12.5 nM. Moreover, the EC50 in test [3] was 30.8 nM.

Turning to `C[C@H]1CN(c2cc(F)c(C3=CCN(c4ncc(C#N)s4)C3)c(F)c2NC(=O)c2c[nH]c(=O)cc2C(F)(F)F)CCN1C` [Example 96, (S)—N-(3-(1-(5-cyanothiazol-2-yl)-2,5-dihydro-1H-pyrrol-3-yl)-6-(3,4-dimethylpiperazin-1-yl)-2,4-difluorophenyl)-6-oxo-4-(trifluoromethyl)-1,6-dihydropyridine-3-carboxamide], the Kd in test [1] was found to be 0.51 nM. The concentration for half-maximal inhibition (IC50) in test [2] was found to be 11.9 nM. In addition, the half-maximal effective concentration (EC50) in test [3] came out at 70.1 nM.

Take `C[C@@H]1CN(c2nccc(-c3c(F)cc(N4CCN(C)[C@@H](C)C4)c(NC(=O)c4cn(C)c(=O)cc4C(F)F)c3F)n2)C[C@H](C)O1` [Example 57, 4-(Difluoromethyl)-N-(3-(2-((2S,6R)-2,6-dimethylmorpholino)pyrimidin-4-yl)-6-((S)-3,4-dimethylpiperazin-1-yl)-2,4-difluorophenyl)-1-methyl-6-oxo-1,6-dihydropyridine-3-carboxamide]: in test [1], the dissociation constant Kd was found to be 7.63 nM. For the same molecule, in test [2], the IC50 worked out at 26.8 nM. In test [3], the EC50 was 367 nM.

In the case of `CC(C)OC(=O)N1CC=C(c2c(F)cc(N3C[C@@H](C)N(C)[C@@H](C)C3)c(NC(=O)c3c[nH]c(=O)cc3C(F)(F)F)c2F)C1` [Example 134], the dissociation constant Kd in test [1] stood at 0.87 nM. Besides, in test [2], the IC50 stood at 11.4 nM. Besides, in test [3], the EC50 is 55.8 nM.

As for `C[C@@H]1CN(c2cc(F)c(C3=CCN(c4ncc(F)cn4)CC3)c(F)c2NC(=O)c2c[nH]c(=O)cc2C(F)(F)F)C[C@H](C)N1C` [Example 145, N-(2,4-difluoro-3-(1-(5-fluoropyrimidin-2-yl)-1,2,3,6-tetrahydropyridin-4-yl)-6-((3S,5R)-3,4,5-trimethylpiperazin-1-yl)phenyl)-6-oxo-4-(trifluoromethyl)-1,6-dihydropyridine-3-carboxamide], the equilibrium dissociation constant (Kd) in test [1] was 0.84 nM. In addition, in test [2], the IC50 stood at 13.9 nM. The concentration for a half-maximal effect (EC50) in test [3] amounted to 58.9 nM.

As for `C[C@H]1CN(c2cc(F)c(C3=CCN(c4ncc(C#N)s4)CC3)c(F)c2NC(=O)c2c[nH]c(=O)cc2C(F)(F)F)CCN1C` [Example 98, (S)—N-(3-(1-(5-cyanothiazol-2-yl)-1,2,3,6-tetrahydropyridin-4-yl)-6-(3,4-dimethylpiperazin-1-yl)-2,4-difluorophenyl)-6-oxo-4-(trifluoromethyl)-1,6-dihydropyridine-3-carboxamide], the dissociation constant Kd in test [1] was determined as 0.77 nM. Moreover, in test [2], the half-inhibitory concentration (IC50) was 13.1 nM. Moreover, in test [3], the EC50 turned out to be 97.7 nM.
